Experiment [1] concerns the target T1, HCV NS5B polymerase 1b BK strain (Hepatitis C virus genotype 1b, UniProt P26663).
T1 construct: six-histidine tag; made in house; host or cells: E. coli
Nature of the experiment: HCV NS5B polymerase enzymatic inhibition assay, strain 1b BK. In kind it is biochemical. Conditions: enzyme, strain 1b BK; read-out: HCV Polymerase Strain 1b BK IC50. Here is the method:
(§1) Purified HCV NS5B polymerase enzymes were used for polymerase inhibition assays. All recombinant HCV polymerases contained the first 570 amino acids of the 591 amino acid native protein sequence and a six-histidine tag at the N-terminus or C-terminus to facilitate purification by affinity chromatography. The DNA nucleotide sequence for the HCV polymerase 1b BK strain was codon optimized for expression in E. coli. A synthetic gene was prepared from a series of overlapping oligonucleotides that were filled in using a DNA polymerase and amplified by PCR. The patient isolate HCV polymerases were cloned by RT-PCR methods using HCV RNA extracted from the serum of infected subjects obtained from ProMedDx and BioCollections (genotypes 2a, 2b, 3a, and 4a). Laboratory strains were cloned from plasmid DNA (1a-H77 or 1a-H77-C316Y) or from existing replicon cells (1b Rice). In all cases the amplified DNA was cloned into a protein expression vector (typically a pET vector from Novagen) and then multiple clones were sequenced to identify one whose NS5B sequence agreed with the population sequence. This sequence-confirmed clone was then transfected into E. coli for protein expression and purification. E. coli cultures were grown to a maximum optical density (OD) of 2-3 and then induced with 0.4 mM isopropyl beta-D-thiogalactopyranoside (IPTG) and grown for 20 hours at 20° C.
(§2) Proteins were purified using nickel affinity chromatography, and additional column steps were added including, ion exchange, size exclusion, hydrophobic ion, and poly-U affinity chromatography, as needed, depending on the sample being purified. The template RNA used in the polymerase enzymatic assay was a 2.1 kb construct that corresponds to the 3′-end of an HCV genotype 1b negative strand RNA.
(§3) The reaction was initiated by the addition of 20 μM CTP, 20 μM ATP, 0.284 μM (0.5 μCi) of 5,6-[^3H] UTP, 5 nM template RNA and 0.1 U/μL RNase inhibitor (RNasin, Promega), and allowed to proceed for three hours at 30° C. The final reaction volume was 50 μL. The reaction was terminated by the addition of 50 uL of 4 mM spermine in 10 mM Tris-HCl, pH 7.5, 1 mM EDTA. The quenched reaction was allowed to incubate for at least 15 minutes at room temperature, and then the precipitated RNA was captured by filtration through a glass fiber filter (GF/B, Millipore) in a 96 well format. The filter plate was washed five times with 200 μL of 2 mM spermine, 10 mM Tris-HCl, pH 8.0, 1 mM EDTA, and two times with ethanol. After drying thoroughly in air, 30 μL of Microscint-20 scintillation cocktail (Perkin Elmer) was added to each well, and the retained cpm were determined by scintillation counting. IC50 values were determined by nonlinear regression.
(§4) % Inhibition=100*[[I]/([I]+[IC50])] equation 1
(§5) V=kcat[S]/2(Km+[S])*(sqrt((IC50+I−E)̂2+(4*IC50*E))−(IC50+I−E)) equation 2

The test system of experiment [2] is HCV NS5B polymerase 1a-H77-C316Y. Description: biochemical. The arrangement: species or system HCV genotype 1a. Conditions: ratio of enzyme IC50s, 1a H77-C316Y / 1a H77. The method, then:
as §1, §2, §3, §4, §5

The target of experiment [3] is T2, HCV NS5B polymerase 1a-H77 (Hepatitis C virus genotype 1a, UniProt P27958).
T2 construct: six-histidine tag; made in house; host or cells: E. coli
Nature of the experiment: biochemical. Details: species or system HCV genotype 1a. Conditions: enzyme, strain 1a H77; read-out: HCV Polymerase Strain 1a H77 IC50. The method, then:
as §1, §2, §3, §4, §5

Experiment [4] has as its target T3, HCV NS5B polymerase 1a-H77-C316Y (Hepatitis C virus genotype 1a, UniProt P27958, C2736Y).
T3 construct: six-histidine tag; made in house; host or cells: E. coli
Nature of the experiment: biochemical. Details: species or system HCV genotype 1a. The method, then:
as §1, §2, §3, §4, §5

The subject of experiment [5] is HCV 1b-BB7 subgenomic replicon. Nature of the experiment: microbe, parasite or virus in culture. In kind it is cell-based, HCV genotype 1b. Conditions: Hepatitis C virus, stable replicon. (Replicon systems follow genome replication, usually without infectious particles.)
In experiment [6] the test system is HCV 1a-H77 subgenomic replicon. Description: microbe, parasite or virus in culture. In kind it is cell-based, HCV genotype 1a. Conditions: Hepatitis C virus, stable replicon.
The mark [7] stands for this setting: strain 1b BB7, 5% FBS + 40% human plasma, read-out: 1b BB7 5% FBS + 40% Human Plasma EC50.
The mark [8] stands for this setting: strain 1b BB7, 5% FBS, no human plasma, read-out: 1b BB7 5% FBS EC50.
[9] abbreviates: strain 1b BB7, 5% FBS, read-out: 1b BB7 5% FBS EC50.
The mark [10] stands for this setting: 5% FBS, absence of human plasma, read-out: Stable Replicon 1a H77 5% FBS EC50.
[11] abbreviates: strain 1a H77, 5% FBS + 40% human plasma, read-out: 1a H77 5% FBS + 40% Human Plasma EC50.
The mark [12] stands for this setting: strain 1a H77, 5% FBS, no human plasma, read-out: 1a H77 5% FBS EC50.
The mark [13] stands for this setting: strain 1a H77, 5% FBS, read-out: 1a H77 5% FBS EC50.

Like-named read-outs stand apart in the source and are kept apart here.

T3 sequence (P27958 2421-2990 C2736Y): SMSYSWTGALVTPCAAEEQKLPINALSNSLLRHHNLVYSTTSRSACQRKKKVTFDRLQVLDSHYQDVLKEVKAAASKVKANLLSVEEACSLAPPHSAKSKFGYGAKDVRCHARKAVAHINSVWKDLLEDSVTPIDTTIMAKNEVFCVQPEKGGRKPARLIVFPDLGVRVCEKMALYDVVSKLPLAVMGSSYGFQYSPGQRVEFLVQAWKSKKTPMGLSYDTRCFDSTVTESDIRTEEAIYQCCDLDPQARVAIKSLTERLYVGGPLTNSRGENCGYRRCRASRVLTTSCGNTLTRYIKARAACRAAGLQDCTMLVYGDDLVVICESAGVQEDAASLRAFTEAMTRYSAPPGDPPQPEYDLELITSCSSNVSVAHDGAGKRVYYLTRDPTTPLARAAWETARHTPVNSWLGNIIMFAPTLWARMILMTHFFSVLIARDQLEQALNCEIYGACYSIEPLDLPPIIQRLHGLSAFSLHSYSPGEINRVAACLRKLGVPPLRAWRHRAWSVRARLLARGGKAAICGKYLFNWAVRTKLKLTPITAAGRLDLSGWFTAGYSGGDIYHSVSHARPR
T2 sequence (P27958 2421-2990): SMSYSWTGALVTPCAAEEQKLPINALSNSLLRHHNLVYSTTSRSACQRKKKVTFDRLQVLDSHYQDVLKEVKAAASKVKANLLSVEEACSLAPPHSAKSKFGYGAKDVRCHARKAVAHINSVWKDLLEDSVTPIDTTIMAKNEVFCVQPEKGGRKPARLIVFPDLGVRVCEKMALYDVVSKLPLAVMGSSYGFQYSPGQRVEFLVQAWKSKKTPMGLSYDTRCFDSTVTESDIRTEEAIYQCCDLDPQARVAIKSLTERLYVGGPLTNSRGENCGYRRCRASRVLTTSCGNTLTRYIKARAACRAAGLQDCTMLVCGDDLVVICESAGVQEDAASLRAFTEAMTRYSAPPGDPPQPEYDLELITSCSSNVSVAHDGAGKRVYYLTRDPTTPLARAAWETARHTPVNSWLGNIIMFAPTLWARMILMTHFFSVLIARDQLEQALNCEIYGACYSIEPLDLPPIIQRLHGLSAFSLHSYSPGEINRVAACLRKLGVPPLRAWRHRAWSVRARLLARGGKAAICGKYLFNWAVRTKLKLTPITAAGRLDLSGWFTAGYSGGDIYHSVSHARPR
T1 sequence (P26663 2420-2989): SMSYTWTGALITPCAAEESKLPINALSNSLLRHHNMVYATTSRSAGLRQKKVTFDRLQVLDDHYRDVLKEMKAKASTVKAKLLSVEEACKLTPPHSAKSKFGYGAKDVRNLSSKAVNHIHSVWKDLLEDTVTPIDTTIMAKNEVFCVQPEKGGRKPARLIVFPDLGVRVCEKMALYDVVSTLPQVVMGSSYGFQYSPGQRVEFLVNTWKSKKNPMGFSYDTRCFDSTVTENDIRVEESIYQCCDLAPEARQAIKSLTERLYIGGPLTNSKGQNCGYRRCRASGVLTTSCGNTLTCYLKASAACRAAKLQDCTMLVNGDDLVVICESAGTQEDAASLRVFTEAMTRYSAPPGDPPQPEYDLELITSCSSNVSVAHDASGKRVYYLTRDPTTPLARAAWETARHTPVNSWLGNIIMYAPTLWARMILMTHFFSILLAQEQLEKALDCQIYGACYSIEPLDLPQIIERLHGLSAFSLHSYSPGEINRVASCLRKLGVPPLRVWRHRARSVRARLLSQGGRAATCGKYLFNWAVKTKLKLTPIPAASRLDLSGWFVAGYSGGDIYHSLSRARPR

A word on the IC50: it is the concentration that gives 50% inhibition. Consider `COc1ccc(CN(c2cc3oc(-c4ccc(F)cc4)c(C4=NC(C)CN4)c3cc2C2CC2)S(C)(=O)=O)cc1` (centres unmarked) [Example 2a, N-[5-cyclopropyl-2-(4-fluorophenyl)-3-(4-methyl-4,5-dihydro-1H-imidazol-2-yl)-1-benzofuran-6-yl]-N-(4-methoxybenzyl)methanesulfonamide], for which the IC50 in experiment [1] was determined as 55 nM; in experiment [3], 15 nM; in experiment [4], 224 nM. For the same compound, the “C316Y/1a Fold Resistance” value in experiment [2] was found to be 15 fold.
For orientation: EC50 means the concentration needed to bring the measured effect to its halfway point. In the case of `CC(c1ccccc1)N(c1ccc2c(-c3ncc[nH]3)c(-c3ccccc3)oc2c1)S(C)(=O)=O` (centres unmarked) [Example 20, N-[3-(1H-imidazol-2-yl)-2-phenyl-1-benzofuran-6-yl]-N-(1-phenylethyl)methanesulfonamide], the IC50 is 52 nM in experiment [1], 34.9 nM in experiment [3] and 173 nM in experiment [4]. Also, in experiment [2], the “C316Y/1a Fold Resistance” value was found to be 5 fold. Also, the EC50 in experiment [5] (setting [7]) worked out at 7300 nM; in experiment [5] (setting [8]), 133 nM; in experiment [5] (setting [9]), 133 nM; in experiment [6] (setting [10]), 1000 nM; in experiment [6] (setting [11]), 10000 nM; in experiment [6] (setting [12]), 1000 nM. The EC50 in experiment [6] (setting [13]) is 1000 nM.
Turning to `CS(=O)(=O)N(Cc1ccccc1)c1ccc2c(-c3ncc[nH]3)c(-c3ccccc3)oc2c1` [Example 21, N-benzyl-N-[3-(1H-imidazol-2-yl)-2-phenyl-1-benzofuran-6-yl]methanesulfonamide], the IC50 in experiment [1] amounted to 99 nM; in experiment [3], 47.6 nM; in experiment [4] it was 90 nM. For the same compound, in experiment [2], the “C316Y/1a Fold Resistance” value turned out to be 2 fold. Further, the EC50 was 10000 nM in experiment [5] (setting [7]); 593 nM in experiment [5] (setting [8]); 593 nM in experiment [5] (setting [9]); 3440 nM in experiment [6] (setting [10]); 3440 nM in experiment [6] (setting [12]); 3440 nM in experiment [6] (setting [13]).
`CS(=O)(=O)N(Cc1sc(Br)nc1C(F)(F)F)c1ccc2c(-c3ncc[nH]3)c(-c3ccccc3)oc2c1` [Example 22, N-{[2-bromo-4-(trifluoromethyl)-1,3-thiazol-5-yl]methyl}-N-[3-(1H-imidazol-2-yl)-2-phenyl-1-benzofuran-6-yl]methanesulfonamide]: the IC50 in experiment [1] turned out to be 55 nM; in experiment [3], 159 nM; in experiment [4] it was 179 nM. The “C316Y/1a Fold Resistance” value in experiment [2] was 1 fold. For the same compound, the concentration giving a half-maximal response (EC50) in experiment [5] (setting [8]) is 866 nM; in experiment [5] (setting [9]), 866 nM; in experiment [6] (setting [10]) it was 2380 nM; in experiment [6] (setting [12]) it was 2380 nM; in experiment [6] (setting [13]), 2380 nM.
For the compound `CC(C)(C)Oc1ncc(-c2ncc(CN(c3ccc4c(-c5ncc[nH]5)c(-c5ccccc5)oc4c3)S(C)(=O)=O)s2)c(OC(C)(C)C)n1` [Example 27, N-{[2-(2,4-di-tert-butoxypyrimidin-5-yl)-1,3-thiazol-5-yl]methyl}-N-[3-(1H-imidazol-2-yl)-2-phenyl-1-benzofuran-6-yl]methanesulfonamide], the IC50 in experiment [1] worked out at 99 nM; in experiment [3] it was 214 nM; in experiment [4], 3800 nM. In experiment [2], the “C316Y/1a Fold Resistance” value stood at 18 fold. The EC50 in experiment [5] (setting [7]) is 5460 nM; in experiment [5] (setting [8]), 75 nM; in experiment [5] (setting [9]) it was 75 nM; in experiment [6] (setting [10]) it was 866 nM; in experiment [6] (setting [11]) it was 10000 nM; in experiment [6] (setting [12]) it was 866 nM. For the same compound, the EC50 in experiment [6] (setting [13]) was 866 nM.
Turning to `CS(=O)(=O)N(Cc1cnc(-c2c[nH]c(=O)[nH]c2=O)s1)c1ccc2c(-c3ncc[nH]3)c(-c3ccccc3)oc2c1` [Example 29, N-{[2-(2,4-dioxo-1,2,3,4-tetrahydropyrimidin-5-yl)-1,3-thiazol-5-yl]methyl}-N-[3-(1H-imidazol-2-yl)-2-phenyl-1-benzofuran-6-yl]methanesulfonamide], the IC50 in experiment [1] was determined as 9 nM; in experiment [3], 3 nM; in experiment [4], 7 nM. Moreover, the “C316Y/1a Fold Resistance” value in experiment [2] worked out at 2 fold. In addition, the EC50 turned out to be 9830 nM in experiment [5] (setting [7]); 207 nM in experiment [5] (setting [8]); 207 nM in experiment [5] (setting [9]); 1000 nM in experiment [6] (setting [10]); 10000 nM in experiment [6] (setting [11]); 1000 nM in experiment [6] (setting [12]). For the same compound, in experiment [6] (setting [13]), the EC50 amounted to 1000 nM.
Regarding `CS(=O)(=O)N(Cc1cccc(C(F)(F)F)c1)c1ccc2c(-c3ncc[nH]3)c(-c3ccccc3)oc2c1` [Example 32, N-[3-(1H-imidazol-2-yl)-2-phenyl-1-benzofuran-6-yl]-N-[3-(trifluoromethyl)benzyl]methanesulfonamide], the figures for the IC50 in experiment [1], in experiment [3] and in experiment [4] were 80.1 nM, 132 nM and 147 nM, respectively. Besides, the “C316Y/1a Fold Resistance” value in experiment [2] is given as 1 fold. Moreover, the EC50 in experiment [5] (setting [7]) amounted to 79600 nM; in experiment [5] (setting [8]), 599 nM; in experiment [5] (setting [9]), 599 nM; in experiment [6] (setting [10]), 2370 nM; in experiment [6] (setting [12]), 2370 nM; in experiment [6] (setting [13]), 2370 nM.
Consider `CCOC(=O)CN(c1cc2oc(-c3ccc(F)cc3)c(-c3ncc[nH]3)c2cc1C1CC1)S(C)(=O)=O` [Example 33, ethyl N-[5-cyclopropyl-2-(4-fluorophenyl)-3-(1H-imidazol-2-yl)-1-benzofuran-6-yl]-N-(methylsulfonyl)glycinate], for which the IC50 in experiment [1] was 152 nM; in experiment [3], 10.5 nM; in experiment [4] it was 1900 nM. Moreover, the “C316Y/1a Fold Resistance” value in experiment [2] came to 181 fold. Moreover, the EC50 is 4810 nM in experiment [5] (setting [7]); 200 nM in experiment [5] (setting [8]); 200 nM in experiment [5] (setting [9]); 163 nM in experiment [6] (setting [10]); 8840 nM in experiment [6] (setting [11]); 163 nM in experiment [6] (setting [12]). Also, in experiment [6] (setting [13]), the EC50 was determined as 163 nM.
As to `CS(=O)(=O)N(CC1CCCC1)c1cc2oc(-c3ccc(F)cc3)c(-c3ncc[nH]3)c2cc1C1CC1` [Example 34, N-(cyclopentylmethyl)-N-[5-cyclopropyl-2-(4-fluorophenyl)-3-(1H-imidazol-2-yl)-1-benzofuran-6-yl]methanesulfonamide], the IC50 in experiment [1] was 22 nM; in experiment [3], 5 nM; in experiment [4], 149 nM. In addition, in experiment [2], the “C316Y/1a Fold Resistance” value is recorded as 30 fold. The EC50 is 854 nM in experiment [5] (setting [7]); 65 nM in experiment [5] (setting [8]); 65 nM in experiment [5] (setting [9]); 70 nM in experiment [6] (setting [10]); 1290 nM in experiment [6] (setting [11]); 70 nM in experiment [6] (setting [12]). In experiment [6] (setting [13]), the EC50 turned out to be 70 nM.
Take `CCC1NC(c2c(-c3ccc(F)cc3)oc3cc(N(CCC(C)C)S(C)(=O)=O)c(C4CC4)cc23)=NO1` (centres unmarked) [Example 155, N-[5-cyclopropyl-3-(5-ethyl-4,5-dihydro-1,2,4-oxadiazol-3-yl)-2-(4-fluorophenyl)-1-benzofuran-6-yl]-N-(3-methylbutyl)methanesulfonamide]: the “C316Y/1a Fold Resistance” value in experiment [2] was 10 fold. The IC50 in experiment [3] stood at 53 nM; in experiment [4], 554 nM. The EC50 is 10000 nM in experiment [5] (setting [7]); 6250 nM in experiment [5] (setting [8]); 6250 nM in experiment [5] (setting [9]); 3060 nM in experiment [6] (setting [10]); 10000 nM in experiment [6] (setting [11]); 3060 nM in experiment [6] (setting [12]). Besides, the EC50 in experiment [6] (setting [13]) is 3060 nM.

For the origin of these results see US20160355530A1, “HEPATITIS C INHIBITORS AND USES THEREOF” (AbbVie Inc., priority 2010, published 2016).
